Measured values reported in PubChem BioAssay AID248 (DTP/NCI, 2004).
Toxic doses and inconclusive results are not listed. Rule as the data show it: active = T/C of 150% or more; inactive = T/C below 125%.

System: L1210 leukemia ip in BDF1 mice, survival T/C
Test: NCI In Vivo Anticancer Drug Screen. Data for tumor model L1210 Leukemia (intraperitoneal) in B6D2F1 (BDF1) mice
Details: endpoint: mean survival time, higher = longer survival
Summary of the method: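 Transplanted-tumor mice were given test agent; controls received vehicle only. Survival readings from the two groups were divided (treated over control).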

[1] = dose: 100.0 mg/kg/injection, schedule: Q01DX009 (ip), vehicle: saline with Tween-80
[2] = dose: 100.0 mg/kg/injection, schedule: Q04DX003 (ip), vehicle: saline with Tween-80
[3] = dose: 200.0 mg/kg/injection, schedule: Q01DX009 (ip), vehicle: saline with Tween-80
[4] = dose: 200.0 mg/kg/injection, schedule: Q04DX003 (ip), vehicle: saline with Tween-80
[5] = dose: 400.0 mg/kg/injection, schedule: Q01DX009 (ip), vehicle: saline with Tween-80
[6] = dose: 400.0 mg/kg/injection, schedule: Q04DX003 (ip), vehicle: saline with Tween-80
[7] = dose: 100.0 mg/kg/injection, schedule: Q04DX002 (ip), vehicle: saline with Tween-80
[8] = dose: 200.0 mg/kg/injection, schedule: Q04DX002 (ip), vehicle: saline with Tween-80
[9] = dose: 400.0 mg/kg/injection, schedule: Q04DX002 (ip), vehicle: saline with Tween-80
[10] = dose: 100.0 mg/kg/injection, schedule: Q01DX001 (ip), vehicle: saline
[11] = dose: 200.0 mg/kg/injection, schedule: Q01DX001 (ip), vehicle: saline
[12] = dose: 100.0 mg/kg/injection, schedule: Q01DX009 (ip), vehicle: Klucel (hydroxypropylcellulose) (HPC)
[13] = dose: 200.0 mg/kg/injection, schedule: Q01DX009 (ip), vehicle: Klucel (hydroxypropylcellulose) (HPC)
[14] = dose: 400.0 mg/kg/injection, schedule: Q01DX009 (ip), vehicle: Klucel (hydroxypropylcellulose) (HPC)
[15] = dose: 100.0 mg/kg/injection, schedule: Q01DX001 (ip), vehicle: other
[16] = dose: 100.0 mg/kg/injection, schedule: Q04DX003 (ip), vehicle: other
[17] = dose: 200.0 mg/kg/injection, schedule: Q01DX001 (ip), vehicle: other
[18] = dose: 200.0 mg/kg/injection, schedule: Q04DX003 (ip), vehicle: other
[19] = dose: 400.0 mg/kg/injection, schedule: Q01DX001 (ip), vehicle: other
[20] = dose: 400.0 mg/kg/injection, schedule: Q04DX003 (ip), vehicle: other
[21] = dose: 100.0 mg/kg/injection, schedule: Q01DX001 (ip), vehicle: carboxymethylcellulose (CMC)
[22] = dose: 200.0 mg/kg/injection, schedule: Q01DX001 (ip), vehicle: carboxymethylcellulose (CMC)
[23] = dose: 400.0 mg/kg/injection, schedule: Q01DX001 (ip), vehicle: carboxymethylcellulose (CMC)
[24] = dose: 100.0 mg/kg/injection, schedule: Q04DX003 (ip), vehicle: saline
[25] = dose: 200.0 mg/kg/injection, schedule: Q04DX003 (ip), vehicle: saline

Measured: T/C

COc1cc(/C=N/NC(=O)c2ccccc2)cc(OC)c1OC
inactive: [1] 97 % of control | [2] 90 % of control | [3] 92 % of control | [4] 91 % of control | [5] 97 % of control | [6] 90 % of control

O=C1C2CCCC3CCCC(C(=O)N1O)C32 (centres undefined)
inactive: [7] 104 % of control | [8] 99 % of control | [9] 86 % of control

CC(=O)OCCC[P+](c1ccccc1)(c1ccccc1)c1ccccc1
inactive: [10] 102 % of control | [11] 110 % of control

O=Cc1ccc(N(c2ccccc2)c2ccccc2)cc1
inactive: [12] 102 % of control | dose: 100.0 mg/kg/injection, schedule: Q04DX003 (ip), vehicle: Klucel (hydroxypropylcellulose) (HPC) 96 % of control | [13] 91 % of control | dose: 200.0 mg/kg/injection, schedule: Q04DX003 (ip), vehicle: Klucel (hydroxypropylcellulose) (HPC) 100 % of control | [14] 94 % of control | dose: 400.0 mg/kg/injection, schedule: Q04DX003 (ip), vehicle: Klucel (hydroxypropylcellulose) (HPC) 94 % of control

Cc1ccc(NC(=O)COc2ccc(Cl)cc2Cl)cc1NC(=O)COc1ccc(Cl)cc1Cl
inactive: dose: 100.0 mg/kg/injection, schedule: Q04DX002 (ip), vehicle: Klucel (hydroxypropylcellulose) (HPC) 89 % of control | dose: 200.0 mg/kg/injection, schedule: Q04DX002 (ip), vehicle: Klucel (hydroxypropylcellulose) (HPC) 92 % of control | dose: 400.0 mg/kg/injection, schedule: Q04DX002 (ip), vehicle: Klucel (hydroxypropylcellulose) (HPC) 100 % of control

CCCCCCCCCCCCCCCCOS(=O)(=O)O
inactive: dose: 37.5 mg/kg/injection, schedule: Q04DX003 (ip), vehicle: saline 103 % of control | dose: 75.0 mg/kg/injection, schedule: Q01DX001 (ip), vehicle: saline 106 % of control | dose: 75.0 mg/kg/injection, schedule: Q04DX003 (ip), vehicle: saline 97 % of control | dose: 150.0 mg/kg/injection, schedule: Q01DX001 (ip), vehicle: saline 90 % of control | dose: 150.0 mg/kg/injection, schedule: Q04DX003 (ip), vehicle: saline 96 % of control

CCCB(O)O
inactive: [15] 100 % of control | [16] 106 % of control | [17] 101 % of control | [18] 105 % of control | [19] 101 % of control | [20] 106 % of control

Cc1ccc(N=C=O)cc1[N+](=O)[O-]
inactive: dose: 100.0 mg/kg/injection, schedule: Q01DX009 (ip), vehicle: gum acacia 100 % of control | dose: 100.0 mg/kg/injection, schedule: Q04DX003 (ip), vehicle: gum acacia 98 % of control | dose: 200.0 mg/kg/injection, schedule: Q01DX009 (ip), vehicle: gum acacia 89 % of control | dose: 200.0 mg/kg/injection, schedule: Q04DX003 (ip), vehicle: gum acacia 101 % of control | dose: 400.0 mg/kg/injection, schedule: Q01DX009 (ip), vehicle: gum acacia 94 % of control | dose: 400.0 mg/kg/injection, schedule: Q04DX003 (ip), vehicle: gum acacia 90 % of control

COc1ccc2cc(C)ncc2c1
inactive: [10] 96 % of control | [11] 91 % of control | dose: 400.0 mg/kg/injection, schedule: Q01DX001 (ip), vehicle: saline 91 % of control

O=[N+]([O-])c1ccc(NC(=S)NS(=O)(=O)c2ccccc2)c(Cl)c1
inactive: [12] 97 % of control | [13] 97 % of control | [14] 88 % of control

CC(CO)(CO)NC(=O)c1ccc([N+](=O)[O-])cc1
inactive: [21] 94 % of control | [22] 100 % of control | [23] 94 % of control

O=C(O)C1C2CCC1C2 (centres undefined)
inactive: [2] 98 % of control | [4] 101 % of control | [6] 95 % of control

N#C/C(=C\c1ccncc1)c1csc2ccccc12
inactive: [2] 101 % of control | [4] 100 % of control | [6] 94 % of control

CC1(C)COCN1CN1COCC1(C)C
inactive: [24] 101 % of control | [25] 95 % of control

N#CC(=C1C=CC(=NO)C=C1)c1ccc(Cl)cc1
inactive: [1] 97 % of control | [2] 96 % of control | [3] 100 % of control | [4] 107 % of control | [5] 103 % of control | [6] 91 % of control

Nc1ccccc1-n1cccc1
inactive: [16] 100 % of control | [18] 113 % of control | [20] 100 % of control

CC(C)(C(=O)Oc1ccccc1)C(=O)Oc1ccccc1
inactive: dose: 50.0 mg/kg/injection, schedule: Q01DX009 (ip), vehicle: saline with Tween-80 95 % of control | [1] 100 % of control | [3] 88 % of control

CCCCCCCCCCCCCCCCCCSC(C)(C)SCCCCCCCCCCCCCCCCCC
inactive: [7] 106 % of control | [8] 89 % of control | [9] 92 % of control

COc1ccc(OC)c2c1C(=O)CC2C (centres undefined)
inactive: dose: 100.0 mg/kg/injection, schedule: Q01DX009 (ip), vehicle: saline 100 % of control | [24] 96 % of control | dose: 200.0 mg/kg/injection, schedule: Q01DX009 (ip), vehicle: saline 96 % of control | [25] 96 % of control | dose: 400.0 mg/kg/injection, schedule: Q04DX003 (ip), vehicle: saline 91 % of control

Cc1cc2ccccc2[n+](C)c1-c1ccccc1Br
inactive: dose: 5.0 mg/kg/injection, schedule: Q01DX001 (ip), vehicle: saline 108 % of control | dose: 10.0 mg/kg/injection, schedule: Q01DX001 (ip), vehicle: saline 95 % of control

OCn1nc(Cl)c2cc(Cl)ccc21
inactive: [21] 103 % of control | [22] 98 % of control | [23] 100 % of control

COc1ccc(CNCCC(=O)O)cc1OC
inactive: dose: 50.0 mg/kg/injection, schedule: Q01DX001 (ip), vehicle: carboxymethylcellulose (CMC) 107 % of control | [21] 100 % of control | [22] 105 % of control | [23] 105 % of control

CCCCCCCCN(C)/N=N/c1nc[nH]c1C(=O)OCC
inactive: dose: 50.0 mg/kg/injection, schedule: Q01DX001 (ip), vehicle: other 94 % of control | [15] 105 % of control | [17] 113 % of control | [19] 105 % of control

COc1ccc(O)c(/C=N\N=C\c2cc(OC)ccc2O)c1
inactive: [12] 106 % of control | [13] 101 % of control | [14] 95 % of control

COC(=O)c1ccccc1NC(=O)c1ccccc1[N+](=O)[O-]
inactive: dose: 75.0 mg/kg/injection, schedule: Q04DX003 (ip), vehicle: Klucel (hydroxypropylcellulose) (HPC) 101 % of control | dose: 100.0 mg/kg/injection, schedule: Q01DX001 (ip), vehicle: Klucel (hydroxypropylcellulose) (HPC) 95 % of control | dose: 150.0 mg/kg/injection, schedule: Q04DX003 (ip), vehicle: Klucel (hydroxypropylcellulose) (HPC) 98 % of control | dose: 200.0 mg/kg/injection, schedule: Q01DX001 (ip), vehicle: Klucel (hydroxypropylcellulose) (HPC) 100 % of control | dose: 300.0 mg/kg/injection, schedule: Q04DX003 (ip), vehicle: Klucel (hydroxypropylcellulose) (HPC) 97 % of control | dose: 400.0 mg/kg/injection, schedule: Q01DX001 (ip), vehicle: Klucel (hydroxypropylcellulose) (HPC) 95 % of control

Nc1ncnc2c1nnn2C1CC2COP(=O)(O)OC2C1O (centres undefined)
inactive: dose: 44.0 mg/kg/injection, schedule: Q01DX007 (ip), vehicle: saline with Tween-80 103 % of control | dose: 67.0 mg/kg/injection, schedule: Q01DX007 (ip), vehicle: saline with Tween-80 114 % of control | dose: 100.0 mg/kg/injection, schedule: Q01DX007 (ip), vehicle: saline with Tween-80 101 % of control

CCCCCCCc1ccc(C(C)=O)cc1
inactive: [2] 100 % of control | dose: 132.0 mg/kg/injection, schedule: Q04DX003 (ip), vehicle: saline with Tween-80 97 % of control | [4] 101 % of control | dose: 300.0 mg/kg/injection, schedule: Q04DX003 (ip), vehicle: saline with Tween-80 93 % of control | [6] 108 % of control
